# From US4226883A, “Carbamate derivatives and method for manufacture thereof” (priority 1974, dated 1980)
# Read-outs that look alike come from different tables or passages of the source.
# Columns and labels:
# [1] = system: resistant green rice leafhoppers (R); details: ratio of the resistant strain to the susceptible strain (LD50); 1440 min
# Experimental: (1) A 20-mg portion of a given test compound was weighed out and dissolved in 10 ml of acetone. The resultant solution was diluted at proper times with acetone.
# (2) With a micro-syringe, the acetone solution of the test compound was topically applied to the thoracic region of female green rice leafhoppers at a fixed dose of 0.2 μl per head.
# (3) The female green rice leafhoppers thus treated were placed in a plastic cup prepared in advance (measuring 7 cm in diameter and 3.5 cm in depth and containing rice seeds) and kept at a constant temperature of 26±1° C. After 24 hours' standing, the dead insects were counted.
# In the case of a mixed insecticide, the LD50 was shown as a total dosage.
# [2] = system: green rice leafhoppers of the strain RN; experiment: Test Example 3: dust spray test (20 mesh metal gauze cylinder); assay type: in vivo, Nephotettix cincticeps; details: for Effect of individual compound (RN), death ratio (%) (Table 9): dust, compound alone, RN strain
# Experimental: The insecticides in the form of dust were tested for insecticidal activity.
# The test for insecticidal activity was performed by the following procedure. […] The dust of a test compound (pulverized by means of a shaking pulverizer made by Taira Kosakusho, Ltd.) was applied onto the tube contents at a prescribed rate by spraying from outside the metal gauze by means of a bell-jar duster. The dust of the test compound was prepared uniformly mixing 2 parts of the dust of the individual compound or 1 part each of the dusts of the mixture components (total 2 parts) and 98 parts of a carrier obtained by mixing talc and clay in equal volumes.
# [3] = 2% dust, 100 mg, 24 hr, read-out: Mortality (%) after 24 hr., 100 mg Spray (Table 7)
# [4] = 2% dust, 250 mg, 24 hr, read-out: Mortality (%) after 24 hr., 250 mg Spray (Table 7)
# [5] = Table 8, dust 100 mg, 24 hr, read-out: Mortality (%) after 24 hr., Spray Volume 100 mg
# [6] = Table 8, dust 250 mg, 24 hr, read-out: Mortality (%) after 24 hr., Spray Volume 250 mg
SMILES,Insecticidal Activity R/S (resistant ratio) [1],"mortality at 100 mg/cylinder [2, 3]","mortality at 250 mg/cylinder [2, 4]","Effect of individual compound (RN), death ratio (%) (Table 9) [2]",also measured
"CCNC(=O)Oc1cc(C)cc(C(C)C)c1 [Compound 46, 3-methyl-5-isopropylphenyl-N-ethylcarbamate]",0.9,45%,70%,–,–
"CCCNC(=O)Oc1cc(C)cc(C(C)C)c1 [Compound 47, 3-methyl-5-isopropylphenyl-N-n-propylcarbamate]",1.4,70%,100%,–,–
"CNC(=O)Oc1cc(C)cc(C)c1 [Compound 40, 3,5-dimethylphenyl-N-methylcarbamate, reference compound]",5.3,5%,15%,0%,"mortality at 100 mg/cylinder [2, 5]: 5%; mortality at 250 mg/cylinder [2, 6]: 15%"
"CNC(=O)Oc1cc(C)c(N(C)C)c(C)c1 [Compound 118, 4-dimethylamino-3,5-dimethylphenyl-N-methylcarbamate, reference compound]",–,–,–,23.4%,–
"CCCNC(=O)Oc1cccc(C(C)(C)C)c1 [Compound 33, 3-tert-butylphenyl-N-n-propylcarbamate]",1.5,–,–,–,–
"CNC(=O)Oc1ccc(C)c(C)c1 [Compound 35, 3,4-dimethylphenyl-N-methylcarbamate, reference compound]",4.7,–,–,–,"mortality at 100 mg/cylinder ([2]; 24 h, read-out: Mortality (%) after 24 hr., 100 mg Spray (Table 7)): 0%; mortality at 250 mg/cylinder ([2]; 24 h, read-out: Mortality (%) after 24 hr., 250 mg Spray (Table 7)): 0%; mortality at 100 mg/cylinder ([2]; 24 h, read-out: Mortality (%) after 24 hr., Spray Volume 100 mg): 0%; mortality at 250 mg/cylinder ([2]; 24 h, read-out: Mortality (%) after 24 hr., Spray Volume 250 mg): 0%"
"CNC(=O)ON=C(C)SC [Methomyl, 1(methylthio)ethylideneamino-N-methylcarbamate, reference compound]",–,–,–,35.0%,–
"CNC(=O)Oc1cccc(C)c1 [Compound 24, 3-methylphenyl-N-methylcarbamate, reference compound]",9.9,0%,20%,0%,"mortality at 100 mg/cylinder [2, 5]: 0%; mortality at 250 mg/cylinder [2, 6]: 20%"
"CNC(=O)Oc1cccc2c1OC(C)(C)C2 [Carbofuran, 2,3dihydro-2,2-dimethyl-benzofuran-7-yl-N-methylcarbamate, reference compound]",–,–,–,40.0%,–
"CCCNC(=O)Oc1cccc(C(C)C)c1 [Compound 13, 3-isopropylphenyl-N-n-propylcarbamate]",1.4,–,–,–,–
"C=CCNC(=O)Oc1ccccc1C(C)C [Compound 5, 2-isopropylphenyl-N-allylcarbamate]",3.1,–,–,–,–
"CNC(=O)Oc1cc(C)cc(C(C)C)c1 [Compound 45, 3-methyl-5-isopropylphenyl-N-methylcarbamate, reference compound]",11.6,0%,10%,–,–
"CCCNC(=O)Oc1ccccc1OC [Compound 77, 2-methoxyphenyl-N-n-propylcarbamate]",–,–,–,45.0%,"death ratio (%), mixture with Compound No. 1 ([2]; Table 9, dust mixed with 1, RN): 95.0%; death ratio (%), mixture with Compound No. 6* ([2]; Table 9, dust mixed with 6*, RN): 100%; death ratio (%), mixture with Compound No. 24* ([2]; Table 9, dust mixed with 24*, RN): 100%; death ratio (%), mixture with Compound No. 35* ([2]; Table 9, dust mixed with 35*, RN): 100%; death ratio (%), mixture with Compound No. 40* ([2]; Table 9, dust mixed with 40*, RN): 95.0%; death ratio (%), mixture with Compound No. 49* ([2]; Table 9, dust mixed with 49*, RN): 50.0%; death ratio (%), mixture with Compound No. 81* ([2]; Table 9, dust mixed with 81*, RN): 80.0%; death ratio (%), mixture with Compound No. 118* ([2]; Table 9, dust mixed with 118*, RN): 100%; death ratio (%), mixture with Carbofuran ([2]; Table 9, dust mixed with Carbofuran, RN): 100%; death ratio (%), mixture with Methomyl ([2]; Table 9, dust mixed with Methomyl, RN): 100%"
